“Also recorded” adds a separate entry of the source.
Columns and labels:
[1] = target: hAChE-induced Aβ40 aggregation (Homo sapiens, UniProt P22303); assay: biochemical; format: biochemical
Aβ42 = Aβ42 (Homo sapiens, UniProt P05067); assay: Aβ42 self-aggregation, thioflavin-T fluorescence assay; format: biochemical
hCB2R = target: T1, hCB2R (Homo sapiens, UniProt P34972); format: cell-based
T1 construct: expressed in transfected cells; host or cells: HEK cells stably expressing hCB2R

hCB1R = target: T2, hCB1R (Homo sapiens, UniProt P21554); format: binding
T2 construct: expressed in transfected cells; host or cells: CHO cells stably expressing hCB1R
T2 sequence (P21554 whole entry): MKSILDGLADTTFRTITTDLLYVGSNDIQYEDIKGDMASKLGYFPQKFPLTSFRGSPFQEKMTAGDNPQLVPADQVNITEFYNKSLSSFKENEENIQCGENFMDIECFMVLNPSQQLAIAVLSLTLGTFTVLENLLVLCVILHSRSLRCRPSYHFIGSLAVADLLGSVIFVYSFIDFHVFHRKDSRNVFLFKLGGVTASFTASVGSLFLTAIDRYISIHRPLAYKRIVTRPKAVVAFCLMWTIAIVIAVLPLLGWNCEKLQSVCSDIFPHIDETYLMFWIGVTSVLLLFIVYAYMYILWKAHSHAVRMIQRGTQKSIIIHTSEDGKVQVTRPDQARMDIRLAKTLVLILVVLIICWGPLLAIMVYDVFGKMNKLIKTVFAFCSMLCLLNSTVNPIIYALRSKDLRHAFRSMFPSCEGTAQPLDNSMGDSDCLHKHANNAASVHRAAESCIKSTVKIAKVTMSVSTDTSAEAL

[2] = system: murine microglial cell line N9; assay: Microglia activation: LPS-activated N9 cells, M1/M2 markers (Griess reaction, western blot); format: cell-based
hAChE = hAChE (Homo sapiens, UniProt P22303); assay: biochemical; format: biochemical; conditions: hAChE recombinant expressed
hAChE, sequence (P22303 32-614): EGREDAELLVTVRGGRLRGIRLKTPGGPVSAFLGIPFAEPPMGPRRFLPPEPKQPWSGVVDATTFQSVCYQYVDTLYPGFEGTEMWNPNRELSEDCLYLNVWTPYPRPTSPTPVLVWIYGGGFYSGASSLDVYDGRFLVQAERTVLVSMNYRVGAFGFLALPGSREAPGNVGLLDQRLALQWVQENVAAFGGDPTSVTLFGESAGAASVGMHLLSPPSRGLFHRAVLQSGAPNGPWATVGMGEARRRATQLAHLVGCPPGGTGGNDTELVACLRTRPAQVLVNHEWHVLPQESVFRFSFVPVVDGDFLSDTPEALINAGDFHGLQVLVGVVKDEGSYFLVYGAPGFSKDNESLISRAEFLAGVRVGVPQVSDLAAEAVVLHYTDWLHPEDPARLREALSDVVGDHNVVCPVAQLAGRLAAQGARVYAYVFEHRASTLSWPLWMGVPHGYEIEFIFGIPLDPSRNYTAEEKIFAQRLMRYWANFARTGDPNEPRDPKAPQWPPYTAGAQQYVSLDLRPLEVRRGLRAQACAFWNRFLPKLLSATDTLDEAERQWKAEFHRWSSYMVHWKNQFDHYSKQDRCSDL

eeAChE = eeAChE (Electrophorus electricus, UniProt O42275); assay: biochemical; conditions: eeAChE from electric eel; read-out: IC50 AChE (eeAChE)
eeAChE, sequence (O42275 24-633): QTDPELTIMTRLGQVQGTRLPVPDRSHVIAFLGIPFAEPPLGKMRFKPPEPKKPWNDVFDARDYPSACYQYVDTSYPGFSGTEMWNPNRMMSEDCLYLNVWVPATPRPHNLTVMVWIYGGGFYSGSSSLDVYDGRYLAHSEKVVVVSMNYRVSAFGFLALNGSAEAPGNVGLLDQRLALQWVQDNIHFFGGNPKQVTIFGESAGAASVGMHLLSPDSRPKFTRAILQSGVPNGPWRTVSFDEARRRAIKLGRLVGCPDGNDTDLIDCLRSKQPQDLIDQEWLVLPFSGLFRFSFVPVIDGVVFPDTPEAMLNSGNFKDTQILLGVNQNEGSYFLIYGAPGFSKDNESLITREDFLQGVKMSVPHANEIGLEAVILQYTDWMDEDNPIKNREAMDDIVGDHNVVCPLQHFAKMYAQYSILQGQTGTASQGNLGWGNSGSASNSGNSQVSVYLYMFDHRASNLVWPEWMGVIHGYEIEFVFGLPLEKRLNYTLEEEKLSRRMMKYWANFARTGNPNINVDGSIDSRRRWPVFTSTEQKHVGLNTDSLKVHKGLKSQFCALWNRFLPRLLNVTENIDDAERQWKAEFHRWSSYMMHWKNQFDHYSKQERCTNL

hBChE = hBChE (Homo sapiens, UniProt P06276); assay: biochemical; format: biochemical
hBChE, sequence (P06276 29-602): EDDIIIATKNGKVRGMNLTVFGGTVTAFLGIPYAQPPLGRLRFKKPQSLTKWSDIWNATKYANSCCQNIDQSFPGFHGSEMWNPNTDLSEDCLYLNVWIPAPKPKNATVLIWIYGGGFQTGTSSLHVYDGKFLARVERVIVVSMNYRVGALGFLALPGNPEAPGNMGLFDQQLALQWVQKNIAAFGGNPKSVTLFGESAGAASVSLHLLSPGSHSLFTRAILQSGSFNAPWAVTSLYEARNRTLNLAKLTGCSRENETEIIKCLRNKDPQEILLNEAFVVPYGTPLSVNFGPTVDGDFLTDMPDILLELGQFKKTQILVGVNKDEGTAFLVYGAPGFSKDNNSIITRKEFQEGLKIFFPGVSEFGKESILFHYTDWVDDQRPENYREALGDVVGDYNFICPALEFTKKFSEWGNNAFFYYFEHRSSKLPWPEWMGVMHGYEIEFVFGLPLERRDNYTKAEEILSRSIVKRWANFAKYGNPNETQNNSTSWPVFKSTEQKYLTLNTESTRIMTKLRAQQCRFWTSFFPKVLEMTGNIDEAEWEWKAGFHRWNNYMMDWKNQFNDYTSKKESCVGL

HT-22 cells = format: cell-based, murine
[3] = system: Aβ25-35-induced learning impairments in mice; conditions: mouse, ip
[4] = N9 cells, 100 ng/mL LPS, 1-5 µM compound, 24 h, M1 marker
[5] = N9 cells, 100 ng/mL LPS, 1-5 µM compound, 24 h, M2 marker

Aβ42, sequence (P05067 672-713): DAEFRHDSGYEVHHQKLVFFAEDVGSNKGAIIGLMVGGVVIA
hAChE-induced Aβ40 aggregation, sequence (P22303 32-614): as the sequence (P22303 32-614) above
T1 sequence (P34972 whole entry): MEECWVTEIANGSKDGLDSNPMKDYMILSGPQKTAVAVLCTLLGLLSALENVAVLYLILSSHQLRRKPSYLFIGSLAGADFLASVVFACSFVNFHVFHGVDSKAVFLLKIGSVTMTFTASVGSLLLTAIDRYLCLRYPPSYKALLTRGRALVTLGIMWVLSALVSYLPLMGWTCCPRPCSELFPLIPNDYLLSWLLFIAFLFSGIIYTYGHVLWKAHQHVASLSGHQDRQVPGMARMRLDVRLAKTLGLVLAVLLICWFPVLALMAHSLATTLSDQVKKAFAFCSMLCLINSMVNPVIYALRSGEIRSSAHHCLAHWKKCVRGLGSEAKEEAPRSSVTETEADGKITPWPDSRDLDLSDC

CCOc1ccc(Cc2nc3cc(C(=O)N(CC)CC)ccc3n2CCCCCCNc2c3c(nc4ccccc24)CCCC3)cc1 [compound 3e, 2-(4-Ethoxybenzyl)-N,N-diethyl-1-(6-((1,2,3,4-tetrahydroacridin-9-yl)amino)hexyl)-1H-benzo[d]imidazole-5-carboxamide] was tested. Which “inhibition of AChE-induced Aβ40 aggregation (in words)” value [1] did it give?
Its value is “pronounced inhibition; also recorded: significantly reduce”.

And the inhibition at 100 µM ([1]; [I] = 100 µM, Aβ40/hAChE ratio 100/1, mean ± SEM, read-out: % inhibition Aβ aggregation AChE-induced)?
The inhibition at 100 µM was 62.9 ± 5.4%.

And the inhibition at 50 µM (Aβ42; 50 µM inhibitor and 50 µM Aβ42, mean ± SEM, read-out: % inhibition Aβ aggregation self-induced)?
The inhibition at 50 µM was 81.5 ± 2%.

And the “inhibition of Aβ42 self-aggregation (in words)” value (Aβ42; 1/1 ratio with Aβ42)?
The value was “pronounced inhibition; also recorded: strongly inhibited”.

And the MIF gene expression (hCB2R)?
Its MIF gene expression is “reduced”.

What about the STAT-3 gene expression (hCB2R) of the same molecule?
Its STAT-3 gene expression is “reduced”.

What about the “behavior at the hCB2R” value (hCB2R) of the same molecule?
Its value is “maintained their agonist behavior”.

And the “[^3H]CP 55,940 displ. @10 µM hCB1R” value (hCB1R)?
Its value is 17%.

What about the immunomodulatory effect ([2]; LPS-activated microglial cells) of the same molecule?
The immunomodulatory effect was “immunomodulatory effect”.

What about the “NO release / nitrite accumulation” value ([2]; N9 cells, 100 ng/mL LPS, 1-5 µM compound, 24 h) of the same molecule?
The value was “reduced; also recorded: strongly reduces”.

And the IL1β release [2, 4]?
Its IL1β release is “significantly decrease; also recorded: strongly reduces”.

What about the iNOS expression [2, 4] of the same molecule?
Its iNOS expression is “significantly decrease; also recorded: strongly reduces”.

And the TGFβ2 expression [2, 5]?
Its TGFβ2 expression is “not reduced; also recorded: no parallel change”.

And the TREM2 expression [2, 5]?
The TREM2 expression was “not reduced; also recorded: no parallel change”.

And the “pIC50 ± SD AChE (hAChE)” value (hAChE)?
Its value is 7.1 ± 0.1.

And the IC50 (hAChE; read-out: IC50 AChE (hAChE))?
The IC50 was 86.1 nM.

And the IC50 (eeAChE)?
The IC50 was 0.5 nM.

What about the “inhibitory potency towards hBChE compared to tacrine” value (hBChE; compared to tacrine) of the same molecule?
Its value is “increased inhibitory potency”.

What about the IC50 (hBChE; hBChE from human serum, means of at least three determinations, read-out: IC50 hBChE) of the same molecule?
Its IC50 is 1.9 nM.

And the “neuroprotective behavior (in words)” value (HT-22 cells)?
Its value is “low neuroprotective behavior; also recorded: showed neuroprotection”.

What about the “dose that significantly prevented Aβ25-35-induced learning impairments” value ([3]; in vivo) of the same molecule?
Its value is 0.3 mg/kg.

What about the “most effective dose (completely prevented Aβ25-35 impairments in both tests)” value ([3]; in vivo) of the same molecule?
Its value is 0.3 mg/kg.

What about the “dose given for the high in vivo efficacy (conclusion)” value [3] of the same molecule?
The value was 0.1 mg/kg.
